In US7468194B1, “Preparations for the application of anti-inflammatory agents” (Euro-Celtique, S.A., priority 1999, dated 2008):

System: adult articular cartilage
Assay: effect on cartilage of sesamoid bones, release of proteoglycan and COMP fragments
Format: cell-based, bovine
Details: 10 min treatment at 37° C., undiluted or diluted 1:10, 1:100, 1:1000 with Ringer's solution; compared with Ringer's solution control
Procedure: In an unpublished study, the effects of povidone iodine in non-liposomal form was studied on adult articular cartilage.
Sesamoid bones were dissected within 2-4 h after slaughter from bovine metacarpo-phalangeal joints of adult animals under aseptic conditions. The cartilage from sesamoid bones of a particular animal is uniform with respect to glycosaminoglycan synthesis, glycosaminoglycan content, and proteoglycan composition. Each experimental group consisted of eight sesamoid bones from the same animal. The sesamoid bones were washed in 10 ml cold sterile Ringer's solution for 10 min, incubated respectively in 10 ml of sterile Ringer's solution (control), PVP-iodine, or PVP-iodine dilutions with Ringer's solution (1:10, 1:100, or 1:1000) at 37° C. for 10 min in a humidified atmosphere of 5% CO2 in air, and subsequently washed again for 5×5 min in 10 ml Ringer's solution in each case. […] The culture media of sesamoid bones and extracts of cartilage plugs were used for the quantitative and qualitative characterization of proteoglycans and COMP (cartilage oligomeric matrix protein), because an increased release of fragments of these cartilage matrix constituents equals to a catabolic pathway.

## poly(1-vinyl-2-pyrrolidin-2-one)-iodine complex [PVP-iodine]
  proteolytic fragmentation of cartilage matrix constituents (proteoglycans, COMP): no increased proteolytic fragmentation
